For assay [1], the system named is S. pneumoniae strain EF3030. As to the kind of experiment: GLS preincubation of S. pneumoniae strain EF3030 before nasal application to xid mice, CFU in tissues. It counts as in vivo, Streptococcus pneumoniae. As to conditions: four days after nasal application. The protocol:
Aliquots (3×10^7 CFUs) of S. pneumoniae were incubated for 30 minutes with 20 μg asialo-GM1 (a-GM1) or 125 μg of mixed GLSs (MG) prior to nasal application. The ON/E, OBs, brain and NW, NALT and lungs were collected four days later and analyzed for numbers of S. pneumoniae. The 0 value on the Y-axis represents the absence of detectable CFUs. Indicated are the mean+one SE of 5 mice and the P-values were obtained following statistical analysis with the Student's t-test or the Mann-Whitney two sample rank test, as appropriate for the data examined. The data are representative of two separate experiments.
Eight serial, three-fold dilutions were made of tissues and body fluids in sterile Ringer's solution and plated on blood agar plates containing […] gentamicin sulfate. The CFU were enumerated 24 hr after plating and incubation in a candle jar. The results were expressed as CFUs/organ, per NW or per ml of blood.
To block GLS binding sites, 3×10^7 CFU of S. pneumoniae strain EF3030 were incubated for 30 min on ice with either 20 μg asialo-GM1 from human brain or 125 μg of mixed GLSs (18% GM1, 55% GD1a, 15% GD1b, 10% GT1b, 2% other GLSs) from bovine brain (Calbiochem-Novabiochem Corporation, Inc., La Jolla, Calif.). GLSs were dissolved in PBS and extensively mixed a day prior to use. […] Tissues were analyzed for CPUs four days later.

A further assay relates to TIGR4 strain. The assay is described as follows: Attachment of TIGR4 strain to ganglioside-coated ELISA plates. It counts as binding, Streptococcus pneumoniae. As to conditions: short-term incubation with the TIGR4 strain. Here is the method:
The ability of the TIGR4, and its nanA and nanB mutants to bind to specific gangliosides is measured. The gangliosides used include mixed gangliosides, asialo-GM1, GM1, GD1a, GD1b, GT1 (Calbiochem) and the GM3 ganglioside (Sigma) The GM3 ganglioside lacks the terminal or internal GalNAcβ1-4Gal sequence involved in pneumococcal binding and is used as a negative control. These mixed, mono-, di- or tri-sialic acid containing gangliosides bind readily to ELISA plates. […] Using ganglioside-coated plates, the ability to attach to these plates by wildtype TIGR4 strain, the stable opaque and transparent phase variants of the TIGR4 strain, the nanA, nanB, and nanA/nanB mutant strains is compared. These analyses include short-term incubation (1 hr) and extended incubations (24 hrs) on ganglioside-coated plates, Attached pneumococci are removed from the ganglioside plates by short incubation (10-15 min.) in Todd Hewitt medium containing 0.5% yeast extract followed by repeated pipetting and plating the released bacteria on blood agar plates. Alternatively 41° C. Todd Hewitt broth agar containing 0.5% yeast extract is poured on top of the attached pneumococci and the colonies are counted through the bottom of the plate. Controls include plates with no pneumococci and plates with no gangliosides but with pneumococci.

The conditions of assay [2]: Matsubura et al. 1999; cited from earlier work.
In another assay the target is PAF-R (Homo sapiens, UniProt P25105). As to conditions: cited from earlier work.
PAF-R, sequence (P25105 whole entry, species assumed): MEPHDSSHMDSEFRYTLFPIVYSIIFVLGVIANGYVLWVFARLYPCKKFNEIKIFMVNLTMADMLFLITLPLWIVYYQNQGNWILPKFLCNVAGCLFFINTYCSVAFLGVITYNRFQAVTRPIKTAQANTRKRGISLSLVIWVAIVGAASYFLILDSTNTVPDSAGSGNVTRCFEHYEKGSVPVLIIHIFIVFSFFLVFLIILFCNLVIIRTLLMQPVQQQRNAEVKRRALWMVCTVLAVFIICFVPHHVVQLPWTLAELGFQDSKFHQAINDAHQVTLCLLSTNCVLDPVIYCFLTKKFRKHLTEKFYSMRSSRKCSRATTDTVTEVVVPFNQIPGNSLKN

As to asialo-GM1, in assay [1] (CNS), the “reduced colonization in CNS” value is reported as 25 fold. Besides, the “reduced colonization in lungs” value in assay [1] (lungs) is recorded as 63 fold. Moreover, the “binding of pneumococci to coated plates” value with TIGR4 strain is “bind and attachment”.

For the compound GM1, in the assay on TIGR4 strain, the “binding of pneumococci to coated plates” value is “not”.

Take GM3 [GM-3]: the “binding of pneumococci to coated plates” value in the assay on TIGR4 strain is on record as “not”.

Consider VWRLLAPPFSNRLLP [GM1-binding peptide], for which, in assay [2], the IC50 was 1000 nM and the “affinity for GM1” value is 10^10 M^−1.

Regarding `CCCCCCCCOc1ccccc1C(=O)Nc1ccc(C(=O)OCC[N+](C)(CC)CC)cc1` [octylonium bromide], the “binding to the PAF-R” value on PAF-R is “binds with high affinity”.

One may read the IC50 as the point on the concentration scale where inhibition reaches its midpoint.

These data come from patent US8329195B2, “Detoxified pneumococcal neuraminidase and uses thereof” (priority 2007, dated 2012).
